The text below walks through data of patent US7130746B2, “Computer systems and computer programs for determining protein activity levels using gene expression profiles” (priority 1998, dated 2006).

Data set [1] deals with yeast Saccharomyces cerevisiae. The data set can be described thus: Yeast growth under methotrexate titration. Type of data set: cell-based. Conditions: 100 μM methotrexate titration.
For data set [2], the system named is yeast gene YOL031C. The data set can be described thus: Transcript array gene expression response to methotrexate, Hill function fit. Type of data set: cell-based, Saccharomyces cerevisiae. The text has this:
FIG. 2 illustrates an example of perturbation response profiles measured at discrete protein activity levels of dihydrofolate reductase. Specifically, the figure illustrates mRNA expression levels of 30 genes of the yeast Saccharomyces cerevisiae that, of the 6000 genes in the genome of this yeast, had the largest expression changes in response to six different titrations of the drug methotrexate, which is known to act primarily by disrupting the activity of dihydrofolate reductase. These gene expression level measurements were made with gene transcript arrays, as described in Section 5.5. The perturbation response profiles in FIG. 2 can be interpolated according to the methods disclosed in Section 5.4, below, to provide perturbation response profiles for any activity level of dihydrofolate reductase, i.e., perturbation response curves.
In model fitting, the perturbation responses are interpolated by approximating each by a single parameterized function. An exemplary model-fitting function appropriate for approximating transcriptional state data is the Hill function, which has adjustable parameters a, u0 and n.
[formula] the adjustable parameters are selected independently for each cellular constituent of the perturbation response. Preferably, the adjustable parameters are selected so that for each cellular constituent the sum of the squares of the distances H(pl) from Rk(pl) is minimized. This preferable parameter adjustment method is known in the art as a least squares fit of H( ) to Rk( ). Other possible model functions are based on polynomial fitting, for example by various known classes of polynomials.
Model fitting with a Hill function is illustrated with respect to FIGS. 2 and 4. As discussed, FIG. 2 illustrates an example of perturbation by methotrexate and identified by measurement. This figure illustrates the RNA expression levels of 30 genes of the yeast S. cerevisiae that, of the approximately 6000 genes in the genome of this organism, had the largest expression changes in response to six different exposure levels of methotrexate. […]

The test system of data set [3] is wild type yeast cells. Conditions: 10 micrograms/ml doxycycline (Gari et al., 1997); cited from earlier work.

In data set [1], `CN(Cc1cnc2nc(N)nc(N)c2n1)c1ccc(C(=O)N[C@@H](CCC(=O)O)C(=O)O)cc1` [methotrexate] showed a growth defect of 50%. Moreover, the “Hill function parameter n” value in data set [2] (least squares fit of YOL031C expression response) came to 2. Besides, in data set [2] (least squares fit of YOL031C expression response (log10 expression ratio)), the “Hill function parameter a” value is reported as −0.61. Besides, in data set [2] (least squares fit of YOL031C expression response, methotrexate exposures 3-200 μM), the “Hill function parameter log10(u0)” value stood at 1.26.

For the compound `C[C@H]1c2cccc(O)c2C(=O)C2=C(O)[C@]3(O)C(=O)C(C(N)=O)=C(O)[C@@H](N(C)C)[C@@H]3[C@@H](O)[C@@H]21` [doxycycline], the “effect on growth rate” value in data set [3] is reported as “no significant effect”.
